Experimental data as given in patent US10039283B2, “Substituted pyrazolyl-nicotin(thio)amide derivatives and their use as fungicides” (BAYER CROPSCIENCE AKTIENGESELLSCHAFT, priority 2014, dated 2018).

What was measured:
[1] = Log P by HPLC on reversed phase, method [a], acidic range (0.1% formic acid); format: physicochemical; conditions: LC-UV, 0.1% formic acid in water and acetonitrile
[2] = Log P by HPLC on reversed phase, method [b], neutral range (0.001 molar ammonium acetate); format: physicochemical
Method: Measurement of Log P values was performed according to EEC directive 79/831 Annex V.A8 by HPLC (High Performance Liquid Chromatography) on reversed phase columns with the following methods: [b] Log P value is determined by measurement of LC-UV, in a neutral range, with 0.001 molar ammonium acetate solution in water and acetonitrile as eluent (linear gradient from 10% acetonitrile to 95% acetonitrile). Calibration was done with straight-chain alkan2-ones (with 3 to 16 carbon atoms) with known Log P values (measurement of Log P values using retention times with linear interpolation between successive alkanones). Lambda-max-values were determined using UV-spectra from 200 nm to 400 nm and the peak values of the chromatographic signals.

Row | LogP [1] | LogP [2] | SMILES
1 | 2.79^[a]; | 2.72^[b] | O=C(Nc1cnn(-c2c(F)cccc2F)c1C(F)(F)F)c1cccnc1C(F)(F)F [Example 19]
2 | 2.87^[a]; | 2.80^[b] | O=C(Nc1cnn(-c2ccccc2Cl)c1C(F)(F)F)c1cccnc1C(F)(F)F [Example 20]
3 | 2.50^[a]; | 2.43^[b] | O=C(Nc1cnn(-c2c(F)cccc2F)c1C(F)(F)F)c1cccnc1C(F)F [Example 21]
4 | 1.71^[a]; | 1.68^[b] | Cc1c(NC(=O)c2cccnc2C(F)F)cnn1-c1ccccc1F [Example 22]
5 | 2.58^[a]; | 2.53^[b] | O=C(Nc1cnn(-c2ccccc2Cl)c1C(F)(F)F)c1cccnc1C(F)F [Example 77]
6 | 2.75^[a] | – | Cc1cccc(-n2ncc(NC(=O)c3cc(C)cnc3C(F)F)c2C(C)C)c1 [Example 238]
7 | 2.94^[a] | – | CCc1c(NC(=O)c2cc(C)cnc2C(F)F)cnn1-c1cccc(C(F)(F)F)c1 [Example 239]
8 | 3.00^[a] | – | CCc1c(NC(=O)c2cc(C)cnc2C(F)F)cnn1-c1ccc(C(F)(F)F)cc1 [Example 240]
9 | 2.86^[a] | – | Cc1cnc(C(F)F)c(C(=O)Nc2cnn(-c3ccc(OC(F)(F)F)cc3)c2C)c1 [Example 241]
10 | 2.64^[a] | – | Cc1c(NC(=O)c2cccnc2C(F)F)cnn1-c1ccc(OC(F)(F)F)cc1 [Example 242]
11 | 3.68^[a] | – | O=C(Nc1cnn(-c2ccc(SC(F)(F)F)cc2)c1C(F)(F)F)c1cccnc1C(F)F [Example 243]
12 | 4.11^[a] | – | O=C(Nc1cnn(-c2ccc(Oc3ccc(Cl)cc3)cc2)c1C(F)(F)F)c1cccnc1C(F)F [Example 244]
13 | 4.03^[a] | – | Cc1ccc(Oc2ccc(-n3ncc(NC(=O)c4cccnc4C(F)F)c3C(F)(F)F)cc2)cc1 [Example 245]
14 | 2.94^[a] | – | CSc1ccc(-n2ncc(NC(=O)c3cccnc3C(F)F)c2C(F)(F)F)cc1 [Example 246]
15 | 3.19^[a] | – | O=C(Nc1cnn(-c2ccc(OC(F)(F)C(F)F)cc2)c1C(F)(F)F)c1cccnc1C(F)F [Example 247]
16 | 2.80^[a] | – | O=C(Nc1cnn(-c2ccc(Br)cc2)c1C(F)(F)F)c1cccnc1CF [Example 248]
17 | 2.28^[a] | – | Cc1ncccc1C(=O)Nc1cnn(-c2ccc(Br)cc2)c1C(F)(F)F [Example 249]
18 | 2.80^[a] | – | COCc1c(NC(=O)c2cc(C)cnc2C(F)F)cnn1-c1ccc(Br)cc1 [Example 250]
19 | 2.58^[a] | – | COCc1c(NC(=O)c2cccnc2C(F)F)cnn1-c1ccc(Br)cc1 [Example 251]
20 | 3.06^[a] | – | O=C(Nc1cnn(-c2ccc(Cl)c(Cl)c2)c1Cl)c1cccnc1C(F)F [Example 252]
21 | 2.66^[a] | – | O=C(Nc1cnn(-c2cc(F)c(F)c(F)c2)c1Cl)c1cccnc1C(F)F [Example 253]
22 | 4.11^[a] | – | O=C(Nc1cnn(-c2ccc(OC3CCCCC3)cc2)c1C(F)(F)F)c1cccnc1C(F)F [Example 254]
23 | 3.19^[a] | – | CCc1ccc(-n2ncc(NC(=O)c3cccnc3C(F)F)c2C(F)(F)F)cc1 [Example 255]
